Where two headings read alike, the source gives them in different places.
How the values were obtained:
Assay type in all cases: biochemical
[1] = molecular target: T1, Cathepsin K (Homo sapiens, UniProt P43235); assay: Cathepsin K inhibition, fluorogenic peptide substrate kinetic assay (selectivity); conditions: ratio of cathepsin K inhibition constant to cathepsin S inhibition constant
T1 sequence (P43235 115-329): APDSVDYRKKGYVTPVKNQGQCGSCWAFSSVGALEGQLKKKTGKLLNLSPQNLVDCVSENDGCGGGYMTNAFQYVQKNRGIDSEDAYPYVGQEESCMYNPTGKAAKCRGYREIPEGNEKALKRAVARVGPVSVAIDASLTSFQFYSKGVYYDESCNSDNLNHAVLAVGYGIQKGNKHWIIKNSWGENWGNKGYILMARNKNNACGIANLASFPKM

[2] = molecular target: Cathepsin S (Homo sapiens, UniProt P25774); assay: Cathepsin S inhibition, fluorogenic peptide substrate kinetic assay;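 further: cleavage rate of a coumarin-labelled peptide substrate (50 µM) read as fluorescence increase at Ex 380 nm and Em 450 nm, relative to inhibitor-free control reactions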
[3] = molecular target: Cathepsin B (Homo sapiens, UniProt P07858); assay: Cathepsin B inhibition, fluorogenic peptide substrate kinetic assay (selectivity); conditions: ratio of cathepsin B inhibition constant to cathepsin S inhibition constant;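 further: value is the cathepsin B inhibition constant divided by the cathepsin S one, each from kinetic fluorescence readings (ex 380 nm, em 450 nm) of a 10 µM coumarin peptide substrate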
[4] = molecular target: Cathepsin L (Homo sapiens, UniProt P07711); assay: Cathepsin L inhibition, fluorogenic peptide substrate kinetic assay (selectivity); conditions: ratio of cathepsin L inhibition constant to cathepsin S inhibition constant
[5] = Cathepsin S inhibition constant, pH5.5, 20 minutes preincubation at room temperature, read-out: Ki Cat. S

Sequence of Cathepsin L (P07711 114-333, species assumed): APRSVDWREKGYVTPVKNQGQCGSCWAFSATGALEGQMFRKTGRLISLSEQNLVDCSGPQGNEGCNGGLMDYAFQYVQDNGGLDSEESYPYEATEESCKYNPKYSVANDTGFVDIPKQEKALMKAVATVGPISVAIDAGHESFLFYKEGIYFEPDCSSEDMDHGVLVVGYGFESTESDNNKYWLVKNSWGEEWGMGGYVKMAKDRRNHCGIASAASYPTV
Sequence of Cathepsin S (P25774 115-331, species assumed): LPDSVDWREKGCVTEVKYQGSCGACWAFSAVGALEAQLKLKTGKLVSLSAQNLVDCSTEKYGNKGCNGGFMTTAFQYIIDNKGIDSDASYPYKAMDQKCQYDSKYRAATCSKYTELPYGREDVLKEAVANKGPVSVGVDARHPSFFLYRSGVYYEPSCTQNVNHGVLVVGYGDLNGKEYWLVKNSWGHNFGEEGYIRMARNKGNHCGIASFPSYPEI

| Compound | Selectivity for Cat. S over Cat. K [1] | Ki [2, 5] | Selectivity for Cat. S over Cat. B [3] | Selectivity for Cat. S over Cat. L [4] | Ki [2] |
| --- | --- | --- | --- | --- | --- |
| C[C@@H](CNc1ccc(OC(F)(F)F)cc1)NC(=O)[C@@H](CC(=O)N1CCSCC1)CC1CCCCC1 [Example 51, 2-(R)-Cyclohexylmethyl-N-[1-(S)-methyl-2-(4-trifluoromethoxy-phenylamino)-ethyl]-4-oxo-4-thiomorpholin-4-yl-butyramide] | ++ (++, >100) | < 100 nM | +++ (+++, >1000) | + (+, >10) | – |
| CC(=O)N1CCN(C(=O)C[C@@H](CC2CCCCC2)C(=O)N[C@@H](C)CNc2ccc(OC(F)(F)F)cc2)CC1 [Example 52, 4-(4-Acetyl-piperazin-1-yl)-2-(R)-cyclohexylmethyl-N-[1-(S)-methyl-2-(4-trifluoromethoxy-phenylamino)-ethyl]-4-oxo-butyramide] | + (+, >10) | 100 to 1000 nM | ++ (++, >100) | ++ (++, >100) | – |
| COc1ccc([C@H](CC(=O)N2CCOCC2)C(=O)N[C@H](CNc2ccc(OC(F)(F)F)cc2)C(C)C)cc1 [Example 53, 2-(S)-(4-Methoxy-phenyl)-N-{2-methyl-1-(S)-[(4-trifluoromethoxy-phenylamino)-methyl]-propyl}-4-morpholin-4-yl-4-oxo-butyramide] | ++ (++, >100) | – | ++ (++, >100) | ++ (++, >100) | 100 to 1000 nM |
| C[C@@H](CN1CC(C)(C)c2cc(F)ccc21)NC(=O)[C@@H](CC(=O)N1CCOCC1)CC1CCCCC1 [Example 54, 2-(R)-Cyclohexylmethyl-N-[2-(5-fluoro-3,3-dimethyl-2,3-dihydro-indol-1-yl)-1-(S)-methyl-ethyl]-4-morpholin-4-yl-4-oxo-butyramide] | +++ (+++, >1000) | < 100 nM | +++ (+++, >1000) | ++ (++, >100) | – |
| CC(C)[C@@H](CNc1ccc(OC(F)(F)F)cc1)NC(=O)[C@@H](CC(=O)N1CCOCC1)c1ccc(C(F)(F)F)cc1 [Example 55, N-{2-Methyl-1-(S)-[(4-trifluoromethoxy-phenylamino)-methyl]-propyl}-4-morpholin-4-yl-4-oxo-2-(S)-(4-trifluoromethyl-phenyl)-butyramide] | +++ (+++, >1000) | – | ++ (++, >100) | ++ (++, >100) | 100 to 1000 nM |
| Cc1ccc([C@H](CC(=O)N2CCOCC2)C(=O)N[C@H](CNc2ccc(OC(F)(F)F)cc2)C(C)C)cc1 [Example 57, N-{2-Methyl-1-(S)-[(4-trifluoromethoxy-phenylamino)-methyl]-propyl}-4-morpholin-4-yl-4-oxo-2-(S)-p-tolyl-butyramide] | ++ (++, >100) | – | ++ (++, >100) | ++ (++, >100) | 100 to 1000 nM |
| C[C@@H](CNc1ccc(OC(F)(F)F)cc1)NC(=O)[C@@H](CC(=O)N1CCS(=O)(=O)CC1)CC1CCCCC1 [Example 58, 2-(R)-Cyclohexylmethyl-4-(1,1-dioxo-thiomorpholin-4-yl)-N-[1-(S)-methyl-2-(4-trifluoromethoxy-phenylamino)-ethyl]-4-oxo-butyramide] | ++ (++, >100) | 100 to 1000 nM | ++ (++, >100) | + (+, >10) | – |
| CCC1(O)CCCC(C[C@H](CC(=O)N2CCOCC2)C(=O)N[C@@H](C)CNc2ccc(OC(F)(F)F)cc2)C1 (stereo partly drawn) [Example 59, 2-(R)-(3-Ethyl-3-hydroxy-cyclohexylmethyl)-N-[1-(S)-methyl-2-(4-trifluoromethoxy-phenylamino)-ethyl]-4-morpholin-4-yl-4-oxo-butyramide] | + (+, >10) | 1000 to 10000 nM | + (+, >10) | + (+, >10) | – |
| C[C@@H](CNc1ccc(OC(F)(F)F)cc1)NC(=O)[C@@H](CC(=O)N1CCOCC1)c1ccc(C(F)(F)F)cc1 [Example 60, N-[1-(S)-Methyl-2-(4-trifluoromethoxy-phenylamino)-ethyl]-4-morpholin-4-yl-4-oxo-2-(S)-(4-trifluoromethyl-phenyl)-butyramide] | + (+, >10) | – | + (+, >10) | + (+, >10) | 1000 to 10000 nM |
| C[C@@H](CNc1ccc(OC(F)(F)F)cc1)NC(=O)[C@@H](CC(=O)N1CCOCC1)c1ccccc1 [Example 61, N-[1-(S)-Methyl-2-(4-trifluoromethoxy-phenylamino)-ethyl]-4-morpholin-4-yl-4-oxo-2-(S)-phenyl-butyramide] | + (+, >10) | 1000 to 10000 nM | + (+, >10) | + (+, >10) | – |
| C[C@@H](CNc1ccc(OC(F)(F)F)cc1)NC(=O)[C@@H](CC(=O)N1CCOCC1)c1ccc(F)cc1 [Example 62, 2-(S)-(4-Fluoro-phenyl)-N-[1-(S)-methyl-2-(4-trifluoromethoxy-phenylamino)-ethyl]-4-morpholin-4-yl-4-oxo-butyramide] | ++ (++, >100) | 100 to 1000 nM | ++ (++, >100) | ++ (++, >100) | – |
| COc1ccc([C@H](CC(=O)N2CCOCC2)C(=O)N[C@@H](C)CNc2ccc(OC(F)(F)F)cc2)cc1 [Example 63, 2-(S)-(4-Methoxy-phenyl)-N-[1-(S)-methyl-2-(4-trifluoromethoxy-phenylamino)-ethyl]-4-morpholin-4-yl-4-oxo-butyramide] | ++ (++, >100) | 100 to 1000 nM | ++ (++, >100) | ++ (++, >100) | – |
| COc1ccc(NC[C@@H](NC(=O)[C@@H](CC(=O)N2CCOCC2)c2ccc(F)cc2)C(C)C)cn1 [Example 64, 2-(S)-(4-Fluoro-phenyl)-N-{1-(S)-[(6-methoxy-pyridin-3-ylamino)-methyl]-2-methyl-propyl}-4-morpholin-4-yl-4-oxo-butyramide] | + (+, >10) | 100 to 1000 nM | ++ (++, >100) | + (+, >10) | – |
| C[C@@H](CNc1ccc(OC(F)(F)F)cc1)NC(=O)[C@@H](CC(=O)N1CCOCC1)CC1CCC2(CC1)CC2 [Example 65, N-[1-(S)-Methyl-2-(4-trifluoromethoxy-phenylamino)-ethyl]-4-morpholin-4-yl-4-oxo-2-(R)-spiro[2.5]oct-6-ylmethyl-butyramide] | ++ (++, >100) | 100 to 1000 nM | ++ (++, >100) | ++ (++, >100) | – |
| CC(C)[C@@H](CNc1cccc(S(C)(=O)=O)c1)NC(=O)[C@@H](CC(=O)N1CCOCC1)c1ccc(F)cc1 [Example 67, 2-(S)-(4-Fluoro-phenyl)-N-{1-(S)-[(3-methanesulfonyl-phenylamino)-methyl]-2-methyl-propyl}-4-morpholin-4-yl-4-oxo-butyramide] | + (+, >10) | 1000 to 10000 nM | + (+, >10) | + (+, >10) | – |
| CC(C)[C@@H](CN1CC(C)(C)c2cc(F)ccc21)NC(=O)[C@@H](CC(=O)N1CCOCC1)c1ccc(C(F)(F)F)cc1 [Example 68, N-[1-(S)-(5-Fluoro-3,3-dimethyl-2,3-dihydro-indol-1-ylmethyl)-2-methyl-propyl]-4-morpholin-4-yl-4-oxo-2-(S)-(4-trifluoromethyl-phenyl)-butyramide] | ++ (++, >100) | < 100 nM | +++ (+++, >1000) | +++ (+++, >1000) | – |
| CC1(C)CN(C[C@@H](NC(=O)[C@@H](CC(=O)N2CCOCC2)c2ccc(C(F)(F)F)cc2)C2CC2)c2ccc(F)cc21 [Example 69, N-[1-(S)-Cyclopropyl-2-(5-fluoro-3,3-dimethyl-2,3-dihydro-indol-1-yl)-ethyl]-4-morpholin-4-yl-4-oxo-2-(S)-(4-trifluoromethyl-phenyl)-butyramide] | + (+, >10) | 100 to 1000 nM | ++ (++, >100) | ++ (++, >100) | – |

Reference: US7732449B2, “Inhibitors of cathepsin S” (IRM LLC, priority 2003, dated 2010)
